From paper PMC9312158, “Novel 1,2,3-Triazole-sulphadiazine-ZnO Hybrids as Potent Antimicrobial Agents against Carbapenem Resistant Bacteria” (Antibiotics, 2022)
Like-named read-outs stand apart in the source and are kept apart here.

What was measured:
IMP-1 = IMP-1 (Serratia marcescens, UniProt P52699); test: In vitro MBLs inhibition assay with CENTA substrate, IMP-1; format: biochemical; conditions: for inhibition at 5 µM: 5 µM compound, CENTA 70 µM, read-out: % Inhibition IPM-1 (5 µM)
Method: (§1) Assays of enzyme inhibition were measured in the absence and presence of 5 µM of compound 4a–c and their ZnO conjugated hybrids to determine their inhibitory activity (IMP1 and NDM-1). CENTA (70 µM), a chromogenic cephalosporin substrate, was employed. The chromophore […] is formed when MBLs hydrolyze CENTA, and its generation may be detected spectrophotometrically using a plate reader at = 405 nm (at pH 7.0, ε = 6400 M^−1 cm^−1). Assays of kinetics of the inhibition experiments were carried out in accordance with earlier research. Non-linear regression was used to examine the inhibition data.

NDM-1 = NDM-1 (Klebsiella pneumoniae, UniProt C7C422); test: In vitro MBLs inhibition assay with CENTA substrate, NDM-1; format: biochemical; conditions: for inhibition at 5 µM: 5 µM compound, CENTA 70 µM
NDM-1, sequence (C7C422 29-270, looked up, species assumed): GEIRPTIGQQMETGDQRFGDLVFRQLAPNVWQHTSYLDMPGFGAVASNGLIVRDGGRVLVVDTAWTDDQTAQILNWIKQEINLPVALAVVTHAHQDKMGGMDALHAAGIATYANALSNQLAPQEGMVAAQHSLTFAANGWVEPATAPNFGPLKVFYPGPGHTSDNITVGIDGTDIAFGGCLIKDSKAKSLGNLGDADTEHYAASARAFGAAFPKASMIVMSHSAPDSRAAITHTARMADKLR
Method: as §1

[1] = inhibition constant for the competitive inhibition mode, read-out: IPM-1 Kic
[2] = inhibition constant for the uncompetitive inhibition mode, read-out: IPM-1 Kiuc
[3] = inhibition constant for the competitive inhibition mode, read-out: NDM-1 Kic
[4] = inhibition constant for the uncompetitive inhibition mode, read-out: NDM-1 Kiuc

IMP-1, sequence (P52699 19-246, looked up, species assumed): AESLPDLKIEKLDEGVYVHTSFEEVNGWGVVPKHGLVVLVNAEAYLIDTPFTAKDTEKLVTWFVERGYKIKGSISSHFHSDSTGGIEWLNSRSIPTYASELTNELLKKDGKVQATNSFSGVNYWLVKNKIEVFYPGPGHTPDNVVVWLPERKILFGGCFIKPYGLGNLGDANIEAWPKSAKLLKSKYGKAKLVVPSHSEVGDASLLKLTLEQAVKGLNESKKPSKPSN

| Compound | inhibition at 5 µM (IMP-1) | Ki (IMP-1; [1]) | Ki (IMP-1; [2]) | inhibition at 5 µM (NDM-1) | Ki (NDM-1; [3]) | Ki (NDM-1; [4]) |
| --- | --- | --- | --- | --- | --- | --- |
| O=S(=O)(Nc1ncccn1)c1ccc(-n2cc(CO)nn2)cc1 [Compound 3a] | 75% | 11.8 µM | 7.7 µM | 71.2% | 9.6 µM | 6 µM |
| O=S(=O)(Nc1ccccn1)c1ccc(-n2cc(CO)nn2)cc1 [Compound 3b] | 75.4% | 11.4 µM | 7.6 µM | 68.7% | 9 µM | 6 µM |
| NC(N)=NS(=O)(=O)c1ccc(-n2cc(CO)nn2)cc1 [Compound 3c] | 72.9% | 10.9 µM | 5.1 µM | 64.3% | 8.5 µM | 3.9 µM |
